{"source": "paper PMC5041982", "about": "“Small-molecule inhibition of STAT3 in radioresistant head and neck squamous cell carcinoma” (Oncotarget, 2016)", "key": {"[1]": {"target": "T1, pSTAT1 (Tyr-701) (Homo sapiens, UniProt P42224)", "T1 construct": "endogenous in cells; host or cells: Kasumi-1", "T1 sequence (P42224 1-750)": "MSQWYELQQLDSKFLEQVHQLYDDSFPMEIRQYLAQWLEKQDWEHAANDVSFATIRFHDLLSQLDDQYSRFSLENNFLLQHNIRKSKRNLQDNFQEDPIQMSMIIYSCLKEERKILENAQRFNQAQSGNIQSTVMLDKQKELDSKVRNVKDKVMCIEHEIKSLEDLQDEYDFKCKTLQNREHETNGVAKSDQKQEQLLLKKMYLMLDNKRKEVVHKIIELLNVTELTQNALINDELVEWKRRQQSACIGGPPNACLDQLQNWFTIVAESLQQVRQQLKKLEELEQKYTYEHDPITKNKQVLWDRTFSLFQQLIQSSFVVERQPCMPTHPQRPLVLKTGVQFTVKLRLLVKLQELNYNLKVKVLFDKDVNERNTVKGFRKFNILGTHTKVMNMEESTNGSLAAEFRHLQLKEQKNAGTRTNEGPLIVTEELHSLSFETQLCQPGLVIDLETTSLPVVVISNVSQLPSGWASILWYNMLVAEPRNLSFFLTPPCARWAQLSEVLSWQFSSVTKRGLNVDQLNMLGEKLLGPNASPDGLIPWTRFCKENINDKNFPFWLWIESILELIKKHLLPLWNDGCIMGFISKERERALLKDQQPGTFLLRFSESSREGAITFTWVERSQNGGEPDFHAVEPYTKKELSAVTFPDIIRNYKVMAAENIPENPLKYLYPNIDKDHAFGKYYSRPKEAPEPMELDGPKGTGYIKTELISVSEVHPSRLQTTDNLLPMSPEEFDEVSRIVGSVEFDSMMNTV", "test": "Phosphoflow, IFN-γ-induced pSTAT1 in Kasumi-1 cells", "assay_type": "cell-based"}, "[2]": {"system": "pSTAT5", "test": "Phosphoflow, G-CSF-induced pSTAT5 in Kasumi-1 cells", "assay_type": "cell-based", "settings": "mean, n ≥ 2, read-out: Ligand Induced Phosphorylation (Phosphoflow) pSTAT5 (G-CSF) IC50"}}, "note": "Read-outs that look alike come from different tables or passages of the source."}
{"compound": "COc1ccc(S(=O)(=O)Nc2cc(-c3c(O)ccc4ccccc34)c(O)c3ccccc23)cc1", "note": "[Compound C188-9]", "values": [{"measurement": "IC50", "setting": "[1]; Figure 2C, Kasumi-1, read-out: Phosphoflow pSTAT1 (Tyr-701) IC50, representative experiment", "value": 13.4, "unit": "µM"}, {"measurement": "IC50", "setting": "[1]; Kasumi-1, IFN-γ 10 ng/ml 15 min, mean, n ≥ 2, read-out: Ligand Induced Phosphorylation (Phosphoflow) pSTAT1 (IFN-γ) IC50", "value": "9.6 ± 5.6", "unit": "µM"}, {"measurement": "IC50", "setting": "[2]", "value": "5.1 ± 3.6", "unit": "µM"}]}
